From ChEMBL document CHEMBL1135156, “Synthesis of novel furo, thieno, and benzazetoazepines and evaluation of their cytotoxicity” (Bioorg Med Chem Lett, 2002)

How the values were obtained:
HCT-15 = assay: Inhibitory activity against HCT-15 colon cell line using sulforhodamine B (SRB) protein assay; type: functional, cell-based; settings: Homo sapiens
MCF7 = assay: Inhibitory activity against MCF-7 breast cell line using sulforhodamine B (SRB) protein assay; type: functional, cell-based; settings: Homo sapiens
PC-3 = assay: Inhibitory activity against PC-3 prostate cell line using sulforhodamine B (SRB) protein assay; type: functional, cell-based; settings: Homo sapiens
U-251 = assay: Inhibitory activity against U251 CNS cell line using sulforhodamine B (SRB) protein assay; type: functional, cell-based; settings: Homo sapiens
K562 = assay: Iinhibitory activity against K562 leukemia cell line using sulforhodamine B (SRB) protein assay; type: functional, cell-based; settings: Homo sapiens
HCT-15 (Homo sapiens) = assay: Inhibitory activity against HCT-15 colon cell line using sulforhodamine B (SRB) protein assay

Compound | IC50 (HCT-15) | IC50 (MCF7) | IC50 (PC-3) | IC50 (U-251) | IC50 (K562) | IC50 (HCT-15 (Homo sapiens))
CS[C@@]12c3cc(C)oc3CC(C)(C)CN1C(=O)[C@H]2Oc1ccccc1 | 56 µM | 47 µM | 53 µM | 47 µM | 31 µM | 
COc1cccc2c1C(=O)c1c(O)c3c(c(O)c1C2=O)C[C@@](O)(C(=O)CO)C[C@@H]3O[C@H]1C[C@H](N)[C@H](O)[C@H](C)O1 [DOXORUBICIN] | 0.23 µM |  | 32 µM | 0.09 µM | 0.28 µM | 
COc1cccc2c1CCCN1C(=O)[C@@H](Oc3ccccc3)[C@]21SC |  | 33 µM | 21 µM | 25 µM | 23 µM | 19 µM

The remaining lines, values ahead:

IC50 (HCT-15) | IC50 (MCF7) | IC50 (PC-3) | IC50 (U-251) | IC50 (K562) | IC50 (HCT-15 (Homo sapiens)) | Compound
26 µM | 41 µM | 11 µM | 33 µM | 39 µM |  | CS[C@@]12c3cc(C)sc3CC(C)(C)CN1C(=O)[C@H]2Oc1ccccc1
> 100 µM | > 100 µM | 87 µM | 40 µM | > 100 µM |  | CS[C@@]12c3cc(C)n(-c4ccc(I)cc4)c3CC(C)(C)CN1C(=O)[C@H]2Oc1ccccc1
